Results taken from the supplement of paper PMC4954754.
± gives the uncertainty stated by the source.

Legend:
Conditions in all cases: 18 h
HEK293T-Rex ERSE-FLuc [1] = assay: EC50 for ERSE-FLuc reporter activation
Procedure: (§1)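 Dose-response of hit compounds in HEK293T-Rex cells stably expressing ERSE-FLuc or XBP1-RLuc reporters, 18 hr treatment, 1536-well; luminescence normalised to 500 nM thapsigargin (100%) and DMSO (0%), fitted to give EC50 (M) and maximal activation; '>' marks EC50 above the top tested dose (~17 µM).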

HEK293T-Rex XBP1-RLuc [2] = assay: EC50 for XBP1-RLuc reporter activation
Procedure: as §1

HEK293T-Rex ERSE-FLuc [3] = assay: maximal ERSE-FLuc activation from dose-response fit, relative to thapsigargin (% of thapsigargin); higher = stronger activation
Procedure: as §1

HEK293T-Rex XBP1-RLuc [4] = assay: maximal XBP1-RLuc activation from dose-response fit, relative to thapsigargin (% of thapsigargin); higher = stronger activation
Procedure: as §1

Row | Structure (SMILES) | EC50 for ERSE-FLuc reporter activation (HEK293T-Rex ERSE-FLuc [1]) [µM] | EC50 for XBP1-RLuc reporter activation (HEK293T-Rex XBP1-RLuc [2]) [µM] | maximal ERSE-FLuc activation (HEK293T-Rex ERSE-FLuc [3]) | maximal XBP1-RLuc activation (HEK293T-Rex XBP1-RLuc [4])
1 | O=c1/c(=C/c2ccc(O)c(O)c2)sc2nc3ccccc3n12 | 6.02 | > 16.9 | 59.2 ± 3.9 | 43.9 ± 5.4
2 | CCOc1cccc(C(=O)Nc2ccc(-c3nc4ccc(C(=O)c5ccccc5)cc4[nH]3)cc2)c1 | > 11.5 | 2.33 | 25.2 ± 5 | 66.4 ± 12
3 | Cn1cccc1/C=C1/SC(=Nc2ccccc2)NC1=O | > 16.7 | > 16.7 | 40.8 ± 2.8 | 18.6 ± 6.5
4 | O=C(/C=C/c1ccccc1)Nc1ccc(Br)cn1 | > 13.7 | > 13.7 | 26.2 ± 3.8 | 4.36 ± 3.2
5 | O=C(CCCN1CCC2(CC1)C(=O)N(Cc1cccc(F)c1)CN2c1ccccc1)c1ccc(F)cc1 | 4.46 | 4.02 | 187 ± 19 | 214 ± 7.7
6 | Cc1ccc(O)c(NC(=O)c2cc(-c3ccc(O)cc3)on2)c1 | 9.05 | > 16.9 | 58.9 ± 2.1 | 30.8 ± 5.7
7 | O=C(N/N=C\C(Cl)=C\c1ccccc1)c1n[nH]c2c1CCCC2 | > 16.9 | > 16.9 | 19.7 ± 5.1 | 3.51 ± 3.7
8 | Cc1cc(C)c(OCC(=O)N/N=C/c2ccc(O)c(O)c2)c(Br)c1 | > 16.9 | > 16.9 | 49.6 ± 5.9 | 41.1 ± 11
9 | CN(C)c1ccc(C(=NO)c2ccc(N(C)C)cc2)cc1 | > 17.1 | > 17.1 | 21.7 ± 4.1 | 7.51 ± 2.8
10 | CCCCNc1ncnc2c1cnn2-c1ccc(Cl)cc1 | > 19.5 | > 19.5 | 25.4 ± 3 | 2.05 ± 1.1
11 | COc1cccc(/C=N\NC(=O)c2n[nH]c3c2CCC3)c1 | > 16.6 | > 16.6 | 25.8 ± 1.9 | 4.03 ± 2.5
12 | C(=N/Nc1nnc2c(n1)[nH]c1ccccc12)/c1c[nH]c2ccccc12 | > 16.9 | > 16.9 | 43.9 ± 1.3 | 26 ± 1.9
13 | Cc1ccc2nc(/C(C#N)=C/c3ccc(O)c(O)c3)[nH]c2c1 | > 16.9 | > 16.9 | 23.4 ± 2.9 | 19.7 ± 5.9
14 | Nc1ccc2nc(/C=C/c3ccccc3)[nH]c2c1 | > 15.3 | > 15.3 | 34.4 ± 4.7 | 23.8 ± 1.7
15 | Cc1nc(-c2ccc(C(=O)Nc3ccc(O)cc3)cc2)cs1 | > 16.9 | 12.9 | 27.7 ± 1.8 | 65.5 ± 3.6
16 | O=C(NCCc1ccccc1)c1cc(-c2cccs2)on1 | 12.4 | > 16.9 | 64.6 ± 9.1 | 8.27 ± 3.3
17 | CC(=O)NC1C(OC2OC(CC(O)C3OC(n4ccc(=O)[nH]c4=O)C(O)C3O)C(O)C(O)C2NC(=O)/C=C\CCCCCCCCCC(C)C)OC(CO)C(O)C1O (configuration not stated) | 0.521 | > 16.9 | 139 ± 19 | 45 ± 4.9
18 | CCOc1ccc(NC(=O)c2cccc(F)c2)c([N+](=O)[O-])c1 | > 14.3 | > 14.3 | 26.4 ± 1.6 | 2.67 ± 1.8
19 | Cc1ccc(O)c(NC(=O)c2cc(C(C)C)on2)c1 | > 16.9 | > 16.9 | 39.9 ± 7.2 | 14.4 ± 1.7
20 | O=C(CCc1ccccc1)Nc1ccc(Cl)cn1 | > 17.7 | > 17.7 | 26.1 ± 2.5 | 5.24 ± 0.68
21 | COc1cccc(-c2cc(C(=O)Nc3cc(C)ccc3O)on2)c1 | 8.72 | > 16.9 | 87 ± 20 | 25.6 ± 5.2
22 | Cc1nc(-c2coc3c(O)c(O)ccc3c2=O)cs1 | > 16.9 | > 16.9 | 35.2 ± 6.9 | 20.6 ± 1

Row | Structure (SMILES) | EC50 for ERSE-FLuc reporter activation (HEK293T-Rex ERSE-FLuc [1]) [µM] | EC50 for XBP1-RLuc reporter activation (HEK293T-Rex XBP1-RLuc [2]) [µM] | maximal ERSE-FLuc activation (HEK293T-Rex ERSE-FLuc [3]) | maximal XBP1-RLuc activation (HEK293T-Rex XBP1-RLuc [4])
23 | O=C(Nc1nc2c(s1)CCCC2)c1cccc2ccccc12 | > 18.2 | > 18.2 | 32.2 ± 1.6 | 6.96 ± 1.1
24 | O=C1/C(=C/c2ccc(O)c(O)c2)SC(=S)N1c1ccc(O)cc1 | 12.4 | > 16.9 | 77.1 ± 17 | 35.5 ± 3.5
25 | Cc1ccc(O)c(NC(=O)c2cc(C3CC3)on2)c1 | 2.02 | > 16.9 | 91.7 ± 12 | 23.7 ± 1.1
26 | Nc1ccc2sc(-c3cc(Cl)c(N)c(Cl)c3)nc2c1 | > 16.9 | > 16.9 | 22 ± 6.1 | 14.9 ± 1.8
27 | O=C(CC(=O)Nc1ccc2nc3n(c(=O)c2c1)CCCCC3)NCc1ccco1 | 8.59 | > 16.9 | 77.9 ± 9.8 | 40.7 ± 7.4
28 | O=C(N/N=C/c1ccc(O)c(O)c1)c1cccc(Cl)c1 | 13.6 | > 16.9 | 69.2 ± 4.9 | 29.3 ± 2.4
29 | COC(=O)c1ccc(C(=O)Nc2ccccc2N)cc1 | 9.08 | > 17.8 | 91.1 ± 14 | 28 ± 2.5
30 | COc1ccc(/C=C(\C#N)c2nc(-c3ccco3)cs2)cc1O | > 16.7 | > 16.7 | 32.9 ± 2.9 | 14.5 ± 4.2
31 | Oc1ccc(-c2cnc3c(Nc4ccc5[nH]ccc5c4)nccn23)cc1 | > 16.9 | > 16.9 | 21.4 ± 3.8 | 37.8 ± 9.5
32 | O=[N+]([O-])c1ccccc1NC(=S)N/N=C/c1ccc(O)c(O)c1 | > 18.3 | > 18.3 | 21.3 ± 3.4 | 28.2 ± 2.5
33 | O=C(N/N=C/c1ccc2c(c1)OCO2)c1cccc(F)c1 | > 16.9 | > 16.9 | 20.8 ± 5.2 | 5.7 ± 0.65
34 | COc1ccc(-n2nnnc2SCC(N)=O)c(OC)c1 | > 16.9 | > 16.9 | 11.9 ± 3.1 | 1.34 ± 2.6
35 | CCc1cc2c(=O)c(-c3ccc4c(c3)OCCO4)coc2cc1OC | > 15 | > 15 | 31.2 ± 5.7 | 14.1 ± 1.5
36 | COc1cc(/C=C/c2ccc(O)c(OC)c2)ccc1O | > 16.9 | 8.73 | 31.1 ± 6.9 | 72.3 ± 8.1
37 | Cc1ccccc1NC(=O)c1sc2nc(N)c(C#N)c(-c3ccc(C(C)C)cc3)c2c1N | 4.01 | 4.47 | 169 ± 22 | 122 ± 17
38 | COc1ccc(-c2cc(C(=O)Nc3cc(C)ccc3O)on2)cc1OC | > 16.9 | > 16.9 | 29.1 ± 5.3 | 9.55 ± 5.6
39 | NC(=O)c1c(NC(=O)c2cccc3ccccc23)sc2c1CCC2 | > 16.9 | > 16.9 | 21.9 ± 5.8 | 23.1 ± 6.4
40 | CCOc1cc(/C=C2/NC(=O)N(Cc3ccc(F)cc3)C2=O)ccc1O | > 16.9 | 11.9 | 36.3 ± 4.1 | 56.8 ± 0.68
41 | COc1ccc(-c2csc(N(CC3CCCO3)C(=O)CCl)n2)cc1 (configuration not stated) | > 16.9 | > 16.9 | 17.5 ± 3.4 | 10.3 ± 0.8
42 | COc1ccc(C(=O)Nc2nnc(-c3cccs3)s2)cc1 | > 16.9 | > 16.9 | 18.8 ± 1.5 | 1.9 ± 0.9
43 | COc1cccc(-c2cc(C(=O)Nc3cc(C)ccc3O)no2)c1 | > 16.9 | > 16.9 | 46.2 ± 7.9 | 19.1 ± 3.5
